Series [1] deals with Holstein calving cows. Kind of series: Influence of DFA III and DFA IV on calcium concentration in blood in calving of cows (OCPC method). In kind it is in vivo, cow. As to conditions: for Increase of calcium concentration in blood from immediately after calving: in 6 hours, 100 g orally. As for the experimental part: The influence of DFA III and DFA IV on the calcium concentration in blood in calving of cows was examined.
(§1) As test cows, 15 Holstein calving cows with two or more calvings were used, and divided into three groups each consisting of 5 cows. Immediately after calving, the blood was sampled from the tail root. 300 ml of warm water was orally administered to the control group. 100 g of DFA III and 100 g of DFA IV each dissolved in 250 ml of warm water were orally administered to the DFA III group and the DFA IV group respectively. The blood was sampled from the tail root after 6 hours and 60 hours from the blood sampling immediately after calving. The degree of the udder edema was also confirmed by palpation.
Regarding the feeds supplied after calving, the cows were caused to freely take 20 kg/day of TMR containing a grass silage, a corn silage and a concentrate (hereinafter referred to as a mixed feed: forage rate 47.8%), 4 kg of a concentrate and hay. Conditions of calculating the requirement are as follow: day after calving—3, 2 calvings, body weight—612 kg, milk yield—20 kg, milk fat rate—4.0%, and milk protein rate—3.2%. NEl indicates a net energy of lactation, and efNDF indicates an effective neutral detergent insoluble fiber.
(§2) The blood was centrifuged at 3,000 rpm for 10 minutes, and the serum portion was stored at −30° C. until analysis. Calcium was analyzed by the OCPC method. The degree of udder was examined by palpation. A heavy degree was defined as 4, a medium degree as 3, a light degree as 2 and a normal degree as 1 respectively.

Series [2] relates to Holstein cows. Kind of series: Effect of supply of DFA III and DFA IV on calcium metabolism, lactation and urine excretion amount of cows. As to conditions: supplied feeds and 100 g of DFA; for Excretion amount of calcium in urine / Milk fat rate / Milk protein rate / Milk yield: main period of 5 days. The series is classed as in vivo, cow. An excerpt:
The effect of supply of DFA III and DFA IV on calcium metabolism, lactation and a urine excretion amount of cows was examined.
Nine Holstein cows (2 to 4 calvings, 90 to 120 days after calving, average body weight 642 kg, average milk yield 36 kg) were divided into three groups, and subjected to a test by 3×3 Latin squares with one period of 15 days (preliminary period of 10 days and main period of 5 days).
Regarding supplied feeds for a day, a grass silage, a cone silage and a beat pulp were used in fixed amounts of 3, 4 and 2 kg in terms of a dry weight respectively, and an amount of a concentrate (crude protein content 18% TDN content 74%) was ⅓ the milk yield. Further, a mineral agent and a vitamin agent were not supplied, and an insufficient feed for each cow was supplemented by supplying hay. These supplied feeds have the same contents in all cows, and they were caused to freely drink water.
The foregoing supply only was applied to a control group Supplied feeds and 100 g of DFA III were applied to a DFA III group, and supplied feeds and 100 g of DFA IV were applied to a DFA IV group.
The cows were accommodated in a metabolism test laboratory, and milking was conducted twice at 5 o'clock and 17 o'clock. The milk yield was measured and milk composition were analyzed for five days as the main period. The total amount of feces and urine was recovered for five days as the main period, and the fixed amounts thereof were mixed and subjected to analysis.
As is apparent from the results, no great difference was found among the groups in the dry matter intake and the calcium intake. The milk yield was increased in the DFA III and DFA IV groups by approximately 1 kg in comparison to the control group. No difference was found either among the groups in the milk fat rate and the milk protein rate. […] In the table, TDN indicates a total amount of a digestible nutrient.

Series [3] deals with cows with 2 or more calvings. The experiment in a line: Influence of DFA III supply at a dry period on calcium concentration in blood of cows after calving. The series is classed as in vivo, cow. As for the experimental part: The influence of the DFA III supply at a dry period on the calcium concentration in blood of cows after calving was tested in vivo using actual cows.
It has been so far considered that DFA III is administered to cows after caving which is effective for improving the calcium concentration in blood. On the other hand, the calcium concentration in blood is already decreased immediately after calving. As the decree of decrease is greater, vitality and appetite are weak and tend to be slowly recovered. Accordingly, DFA III was supplied at a dry period, and the influence of DFA III on the calcium concentration in blood immediately after calving was examined.
DFA III supply; DFA III (50 g/day) was supplied at a dry period from 3 weeks before an expected date of calving through calving.
Without DFA III supply; DFA III was not supplied before calving.
90 g of DFA III was, each time, supplied to both of the DFA III supply group and the group without DFA supply 0 hour and 6 hours after calving. At a dry period, 4 kg/day of a feed obtained by adding 12,000 IU of vitamin D to 4 kg of a feed was supplied to both the areas.
Cows with 2 or more calvings were used.
As DFA III supply cows, 10 cows which experienced calving after Apr. 30, 2004 were subjected to a test. As cows without DFA III supply, 38 cows which experienced calving from Jul. 14, 2002 through Apr. 18, 2004 and to which DFA III was not supplied at a dry period were used. Since the test started on Jul. 14, 2002, the test cows include 15 cows which experienced calving twice (8 DFA III supply cows and 7 cows without DFA III supply) during this period.
In dry cows, milking was stopped 2 months before an expected date of calving. Then, a concentrate (crude protein content 18%, TDN 72%, Ca 0.9% P 0.5%) was supplied in an amount of 2 kg/day until 3 weeks before an expected date of calving. A concentrate (crude protein content 20%, TDN 75%, Ca 0.2%, P 0.5%) was supplied in an amount of 4 kg/day from 3 weeks before an expected date of calving through calving. As another feed, the cows were caused to freely take hay (crude protein content from 6 to 8%, TDN from 45 to 55%, Ca from 0.2 to 0.3%, P 0.2%) during the entire dry period. A mixture obtained by adding 50 g of DFA III to 4 kg of the concentrate given 3 weeks before an expected date of calving was supplied to the DFA III supply cows. As the feeds supplied after calving, the cows were caused to freely take 20 kg/day of TMR containing a grass silage a corn silage and a concentrate (crude feed rate 47.8%), 4 kg of a concentrate (crude protein content 18%, TDN 72%, Ca 0.9%, P 0.5%) and hay.
In all cows, the blood was sampled from the tail root immediately after calving. Further, the blood sampling was performed from the same tail root after 6 hours, 24 hours and 72 hours from the blood sampling immediately after confinement (0 hour). In 0 hour and 6 hours for blood sampling, 90 g of DFA III, 100 g of calcium carbonate and 10,000 IU of vitamin D dissolved in warm water were orally administered each time.
The blood was centrifuged at 3,000 rpm for 10 minutes, and the serum portion was stored at −30° C. until analysis. The calcium concentration was measured by the OCPC method.

Series [4] concerns Holstein calving cows. Kind of series: Effect of DFA III and calcium and vitamin D on calcium concentration in blood at the time of calving of cows. The series is classed as in vivo, cow. The procedure: The effect of DFA III and calcium and vitamin D on the calcium concentration in blood at the time of calving of cows was examined.
As test cows, 15 Holstein calving cows with 2 or more calvings were used, and divided into three groups each consisting of 5 cows. Immediately after calving, the blood was sampled from the tall root. 100 g of DFA III dissolved in 250 ml of warm water was orally administered to the DFA III group. DFA III and calcium carbonate in amounts of 100 g each which were dissolved in 200 ml of warm water were orally administered to the DFA III+Ca group. DFA III and calcium carbonate in amounts of 100 a each and 10,000 IU of vitamin D which were dissolved in 200 ml of warm water were orally administered to the DFA III+Ca+VD group. The blood was sampled from the tail root after 6, 24 and 70 hours from the blood sampling immediately after calving.
The supply of the feeds and the analyses of the calcium concentration in blood were conducted in the same manner as in Example 3.

Series [5] has as its system Holstein calving cows. Kind of series: Degree of udder edema by palpation after oral administration of DFA III and DFA IV. The series is classed as in vivo, cow. As to conditions: time 0, before administration; heavy 4, medium 3, light 2, normal 1. The procedure: as §1, §2
In series [6] the test system is mice. The experiment in a line: Acute toxicity test for 10 days using mice. In kind it is in vivo. As to conditions: oral administration, 1,000 mg/kg. An excerpt: The dose of DFA III is not particularly limited to the foregoing range. When it is ingested over a long period of time for preservation of the health or for maintenance of the health, the dose may be lower than the foregoing range.

The subject of series [7] is rumen microorganisms. Kind of series: Degradability of DFA III and DFA IV in the rumen (incubation with rumen liquid inoculum). In kind it is in vitro ADME, Holstein steer and cow. As to conditions: 400 mg/dl in culture solution, 39° C., 0 to 24 hours. An excerpt:
In ruminants, for DFA III and DFA IV to accelerate calcium absorption, they have to reach intestines by avoiding degradation thereof in the rumen with microorganisms. Accordingly, degradability of DFA III and DFA IV in the rumen was examined.
A rumen liquid was collected from each of a rumen cannula-fitted Holstein steer to which 4 kg of a concentrate was supplied in consideration of controlling nutrition of a dry cow and which was caused to freely take hay and a cow in which a milk yield was 30 kg and a rate of a concentrate in a supplied feed was 55%. The liquid was filtered through a four-fold gauze to form an inoculum.
As a buffer, a 0.25 M phosphate buffer (KH2PO4 6.8045 g+Na2HPO4.12H2O 26.8605 g/500 ml, pH 7.0) was used, and 1 g of DFA III or DFA IV per 100 ml of this buffer was added.
30 ml of the inoculum and 20 ml of the buffer were added to a 200-ml conical flask. […] In 0, 1, 2, 4, 8, 12 and 24 hours of the culturing, the culture solution was collected from the flask, and analyzed.
The culture solution in the flask was stirred. After 20 ml of the culture solution was collected, 0.1 ml of sulfosalicylic acid (20% solution was added for deproteinization. After centrifugation by 8,000 rotations for 10 minutes, the solution was filtered with a filter paper of 0.45 μm, and DFA III and DFA IV were analyzed by liquid chromatography. […]

The mark [8] stands for this setting: 6 hours after first blood sampling, 100 g orally immediately after calving.
The mark [9] stands for this setting: time 0: blood sampling immediately after calving, before oral administration of 100 g.

As for `OC[C@H]1O[C@@]2(CO[C@]3(CO)O[C@H](CO)[C@@H](O)[C@@H]3O2)[C@@H](O)[C@@H]1O` [DFA III, di-D-fructfuranose-1,2;2,3′ dianhydride], the “Calcium concentration in blood” value in series [1] (setting [8]) was determined as 8.3 mg/dL; in series [1] (60 hours after first blood sampling, 100 g orally immediately after calving) it was 8.0 mg/dL; in series [1] (setting [9]), 7.3 mg/dL; in series [4] (6 hours after first blood sampling, oral administration immediately after calving) it was 7.9 mg/dL; in series [4] (70 hours after first blood sampling, oral administration immediately after calving), 8.5 mg/dL; in series [4] (time 0: immediately after calving, before oral administration) it was 6.7 mg/dL. In addition, the “Increase of calcium concentration in blood from immediately after calving” value in series [1] is on record as “approximately 1 mg/dl”. Moreover, in series [2], the “Increase of milk yield in comparison to the control group” value is on record as “approximately 1 kg”. Besides, the “Excretion amount of calcium in urine” value in series [2] came out at 4.2 g/day. Besides, the Milk fat rate in series [2] came out at 3.86%. Further, the Milk protein rate in series [2] is 3.15%. Moreover, in series [2], the Milk yield is on record as 35.6 kg/day. Moreover, the “Calcium concentration in blood immediately after calving according to the parity” value in series [3] (10 DFA III supply cows, DFA III at dry period) is listed as “not decreased by increasing the parity”. The “Change in calcium concentration in blood after calving (0 to 72 hours)” value in series [3] (Yes-Present calving, 8 cows, DFA III at dry period) was “shifted at a higher level than in the previous calving”. Also, the “Time for calcium concentration in blood to reach the normal value (9 to 11 mg/dl)” value in series [3] (after calving, DFA III supplied at a dry period, 90 g DFA III, calcium carbonate and vitamin D at 0 and 6 hours) is “approximately 6 hours”. For the same compound, the “Increase of calcium concentration in blood immediately after calving in comparison to the previous calving” value in series [3] (present calving with DFA III 50 g/day at dry period vs previous calving without) was determined as 1.0 mg/dL. In addition, in series [3] (present calving, DFA III 50 g/day at a dry period from 3 weeks before expected date of calving), the “Calcium concentration in blood immediately after calving (average)” value is 8.1 mg/dL. Besides, the “Calcium concentration in blood immediately after calving, individual cows” value in series [3] (present calving, DFA III supply at dry period) was at least 7 mg/dL. In addition, the “Increase of calcium concentration in blood in comparison to that immediately after calving” value in series [4] (in 6 hours) stood at 1.2 mg/dL. In addition, the “Degree of udder edema” value in series [5] is 3.3. Further, the “Death in acute toxicity test” value in series [6] is listed as “no death example was observed”.

Turning to `OCC12OCC3OC(CO)(OCC(O1)C(O)C2O)C(O)C3O` [DFA IV, di-D-fructfuranose-2,6:6.2′ dianhydride], in series [1] (setting [8]), the “Calcium concentration in blood” value turned out to be 8.0 mg/dL. In series [1], the “Increase of calcium concentration in blood from immediately after calving” value is “approximately 1 mg/dl”. The “Calcium concentration in blood” value in series [1] (setting [9]) amounted to 7.1 mg/dL. For the same compound, in series [2], the “Increase of milk yield in comparison to the control group” value is “approximately 1 kg”, the “Excretion amount of calcium in urine” value worked out at 4.0 g/day, the Milk fat rate amounted to 3.92% and the Milk protein rate was found to be 3.11%. The Milk yield in series [2] is 35.2 kg/day. The “Degradation in rumen culture solution” value in series [7] (any of the inoculums) is listed as “not degraded”. For the same compound, the “Amount recovered in each incubation time” value in series [7] (liquid chromatography) is listed as “approximately the total amounts thereof were recovered”. Besides, the “Degree of udder edema” value in series [5] was determined as 3.1.
